Patent publication US20050079159A1, “In vivo bioreactors” (Massachusetts Instiute of Technology, priority 2001, published 2005)

System: periosteal explants
Test: In vitro periosteal chondrogenesis, organ culture model in alginate gel suspension
Type: cell-based
Details: 10 ng/ml; for Chondrogenesis (H & E; Safranin-O): first two weeks
Method: A further in vitro study of periosteal chondrogenesis has been performed to evaluate an organ culture model using an alginate gel suspension. Briefly, periosteal explants of approximate dimensions 3×3 mm were cultured in an alginate gel suspension and supplemented with either TGF-β1, b-FGF, a combination of the two, or in the absence of growth factors. b-FGF and TGF-β1 were administered at a concentration of 10 ng/ml every two days at each media change for the first week and first two weeks of in vitro culture respectively.
Additionally the cultures were supplemented daily with 50 μg/ml ascorbic acid for the first four weeks of in vitro culture. Results from histological analysis (H & E; and Safranin-O staining) of the explants performed at 1, 3, 6 and 8 week timepoints, were similar to those from the organ culture model utilizing the agarose gel (data not shown). Namely, after a period of 1 week in vitro culture, none of the explants stained positive for glycosaminoglycans using Safranin-O staining. Significant neo-chondrogenesis from the periosteum was not observed for explants cultured in the absence of added growth factors or supplemented with b-FGF alone over the period of 8 weeks. […] Safranin-O stains of typical periosteal explants after 1, 3, 6 and 8 weeks in vitro culture when b-FGF and TGF-β1 were administered for the first week and first two weeks of in vitro culture were observed.

Row | Substance | Chondrogenesis (H & E; Safranin-O) (after 3 weeks in vitro culture) | Chondrogenesis (H & E; Safranin-O) (after 8 weeks in vitro culture) | Significant neo-chondrogenesis from the periosteum (H & E; Safranin-O) (over the period of 8 weeks in vitro culture)
1 | TGF-β1: transforming growth factor | apparent | most pronounced | –
2 | b-FGF: basic fibroblast growth factor | – | – | not observed
